The source of these data is patent publication US20090264382A1, “Methods for Treating Hematopoietic Neoplasms” (priority 2007, published 2009).

Experiment [1] relates to AML cells / panel of leukemic cell lines. The experiment in a line: Leukemic cell proliferation, viable cell count by trypan blue exclusion. In kind it is cell-based, human. The conditions noted are these: 48 hours. As to the method: Leukemic cells were seeded at 1×10^5 cells/ml in X-vivo medium (Bio-Whittaker, MA) with 5% FBS and CA4P or pre-incubated with the PARP-inhibitor DPQ or caspase-inhibitors Z-VAD-fmk and Q-VD-OPh (R&D, Minneapolis, Minn.). A panel of leukemic cells was incubated with CA4P at the different concentrations indicated in FIG. 1, and viable cells were counted after 48 hours using trypan blue exclusion. Results of four experiments in duplicate are expressed as the ratio of the percentage of viable cells/control±SEM (*p<0.05 as compared with CA4P-untreated cells; n=4). After incubation for 48 hours, cells were counted using trypan-blue exclusion. CA4P at concentrations as low as 1 nM initiated cell death of non-adherent, anchorage-independent AML cells in vitro, with the IC50 ranging from 2.5 to 5 nM (FIG. 1). The majority of the AML cell lines tested was sensitive to CA4P at a concentration of 2.5 nM or less. All leukemic cell lines, as well as a recently established primary leukemic cell line (R81) 16 were sensitive at low doses of CA4P (<10 nM).

A further experiment has as its system GFP-labeled U937 cells. The experiment in a line: Systemic in vivo leukemia model, GFP+U937. More on the design: species or system NOD-SCID mice. Particulars: after 30 days, data not shown. The protocol:
NOD-SCID mice were intravenously inoculated with 1×10^7 GFP+HL60 cells. The HL60 cells were labeled with green fluorescent protein (GFP) by a lentiviral construct, and inoculated systemically through tail vein injection. Three days after inoculation, mice were divided into 2 groups of five mice. One group was treated every other day with PBS (control) and the second group received 25 mg/kg CA4P every other day. Each experiment was done three times. At day 30 after the start of the experiment, two mice from each group were killed, and their organs (spleen, liver and lung), peripheral blood and marrow of surgically removed femurs were collected, and analyzed for the presence of human leukemic cells by flow cytometry. Single cell suspension was stained using phytoerythrin-labeled anti-human CD45 mAb (Pharmingen), and the percentage of double positive human CD45-PE and GFP cells was determined flow cytometer. The extent of GFP+HL60 cell infiltration was assessed by fluorescence microscopy. In a second set of experiments, GFP+U937 cells were used instead of HL60 cells, and the animals sacrificed after 30 days. […]

In the next experiment the test system is HL60 subcutaneous tumors. The experiment in a line: Subcutaneous in vivo leukemia model. More on the design: species or system NOD-SCID mice. The protocol:
HL60 (5×10^6 cells) were injected subcutaneously into the dorsa of seven-week-old NOD-SCID mice (Jackson Laboratory). When mice bore a tumor (i.e. after 12 days), 4 experimental groups were randomized, each with 9 animals. Daily treatment was initiated at this time: the CA4P groups were subjected to intraperitoneal injection of CA4P at 10, 25 and 50 mg/kg body weight, and the control group received PBS. After a 3-day treatment, animals were sacrificed, tumors removed and then subjected to immunohistochemical analysis. Tumors were embedded in paraffin, serially sectioned, and stained with hematoxylin and eosin for histological analysis. Cell death was assessed by TUNEL assay. Cell death within paraffin-embedded tumor sections was detected by TUNEL reaction (Roche Diagnostics). The detection of cell death in this assay relies on the detection of free 3′OH DNA ends.
Tumors from mice treated with CA4P for 3 days were softer and hemorrhagic (particularly when treated with 50 mg/kg) than those observed in the control group. […] The control tumor sections were negative for TUNEL reaction. […] The extent of intra-tumor vascularization within the different groups was assessed by immunostaining for the endothelial-specific antigen MECA-32. […] The neo-vessel density was evaluated by microscopic counting of 5 fields at 10× magnification, and presented as mean number of microvessels per microscopic field±SEM (*p<0.05 as compared with the PBS control group; n=5). The decrease in intra-tumor vascularization induced by CA4P was dose dependent (54±13%, 68±6% and 90±3% decrease for 10, 25 and 50 mg/kg, respectively).

Another experiment concerns VCAM-1. Put plainly: VCAM-1 immunofluorescence in subcutaneous HL60 AML tumors. In kind it is in vivo, NOD-SCID mice. The conditions noted are these: data not shown. The protocol: CA4P may modulate leukemia-vascular interactions, thereby disrupting chemo-protected niches for leukemic cells. […] NOD-SCID mice with subcutaneous HL60 AML tumors were treated with CA4P or PBS (untreated control).

For a further experiment, the system named is AML cell lines. The experiment in a line: Annexin-V/propidium iodide apoptosis by flow cytometry. The class given is cell-based, human. Particulars: 48 hours. The protocol: CA4P-treated AML cells were subjected to Annexin-V/propidium iodide (PI) staining and quantification by flow cytometry. Combretastatin A-4 phosphate (CA4P) induces caspase-independent apoptosis in leukemic cells. CA4P induces apoptosis of leukemic cells. Leukemic cells were treated with or without CA4P for 48 hours and the percentage of apoptotic leukemic cells was determined by Annexin V and propidium iodide staining using flow cytometry. Results are representative of three independent experiments. […] In the majority of AML cell lines tested, CA4P at a concentration of 5 nM induced phosphatidylserine externalization (Annexin V+) in more than 50% of the leukemic cells.
Background: In flow cytometry, cells or beads pass a laser one at a time.

The test system of another experiment is leukemic cells. The experiment in a line: Intracellular ROS detection with H2DCFDA. Particulars: after CA4P exposure. In kind it is cell-based, human. The protocol:
Intracellular ROS were detected as previously described (Krejsa & Schieven, Methods Mol Biol 99:35-47 (2000)). Briefly, leukemic cells were loaded with 2 μM H2DCFDA (Molecular Probes) in assay buffer (RPMI with 10 mM HEPES) for 30 min. at 37° C. and mean fluorescent intensity was measured by flow cytometry. Results are shown from triplicate measurements (±SEM) and are representative of three independent experiments (*p<0.05 as compared with untreated cells; n=3).

As for `COc1ccc(/C=C\c2cc(OC)c(OC)c(OC)c2)cc1OP(=O)(O)O` [CA4P, combretastatin A-4 phosphate], in experiment [1], the “concentration at which all leukemic cell lines and primary line R81 were sensitive” value is below 10 nM; the “concentration at which the majority of the AML cell lines tested was sensitive” value is listed as at most 2.5 nM. The “lowest concentration that initiated cell death of AML cells” value in experiment [1] (in vitro) is given as 1 nM. For the same molecule, in experiment [1] (Homo sapiens, trypan blue exclusion, range over cell lines, read-out: IC50, cell death of non-adherent, anchorage-independent AML cells), the concentration for half-maximal inhibition (IC50) was 2.5 to 5 nM. In the experiment on GFP-labeled U937 cells, the “GFP-positive U937 leukemic cells in the bone marrow” value is given as “less than 0.05%” and the “GFP-positive U937 leukemic cells in the liver” value was “less than 0.05%”. Further, the “decrease in intra-tumor vascularization (MECA-32 microvessel density)” value (“decrease in intra-tumor vascularization” for short) with HL60 subcutaneous tumors (10 mg/kg i.p. daily, 3 days) is 54±13%. Moreover, the “decrease in intra-tumor vascularization” value with HL60 subcutaneous tumors (25 mg/kg i.p. daily, 3 days) was 68±6%. Also, the “decrease in intra-tumor vascularization” value in the experiment with HL60 subcutaneous tumors (50 mg/kg i.p. daily, 3 days) is 90±3%. In addition, the tumor histology entry in the experiment with HL60 subcutaneous tumors (10, 25 and 50 mg/kg, 3 days) is reported as “largely necrotic”. Moreover, in the experiment on HL60 subcutaneous tumors (low to high doses, data not shown), the “cell death in tumor sections (TUNEL)” value is listed as “most of the leukemic cells were non-viable”. Further, in the experiment with VCAM-1, the “VCAM-1 expression in tumors” value was “significantly decreased VCAM-1 expression”. In the experiment with AML cell lines (5 nM, majority of AML cell lines tested), the “leukemic cells with phosphatidylserine externalization (Annexin V+)” value was “more than 50%”. The “PI+, Annexin V(−) cells (necrotic)” value in the experiment on AML cell lines is listed as “Only a small number”. The “intracellular ROS (H2DCFDA fluorescence)” value in the experiment with leukemic cells is “rapid accumulation of superoxide anions”.

One may read the IC50 as the concentration needed to halve the response being measured.
